# Values quoted from earlier work as cited in patent US11324772B2, “Periodontal gel composition and method of use” (PRUDENTIX LTD., priority 2017, dated 2022).
smiles,measurement,setting,value
"CCCCCCCCN=c1ccn(CCCCCCCCCCn2ccc(=NCCCCCCCC)cc2)cc1 [octenidine, 1,1′,4,4′-tetrahydro-N,N′-dioctyl-1,1′-decametylenedi-(4-pyridylideneamine)]",pH range in which octenidine is stable and maintains its antimicrobial activity,pH,1.6-12.2
same,temperature up to which it can be sterilized by steam in aqueous solutions,"steam, aqueous solutions",up to 130 °C
